Measured values from US10328051B2, “Proline or proline derivatives for the treatment of dementia” (priority 2014, dated 2019).
“Also recorded” adds a separate entry of the source.

How the values were obtained:
[1] = test system: hepatic fibrosis; experiment: Phase II clinical study IPSS-B025: anti-fibrotic efficacy in chronic liver diseases; assay type: in vivo, human
Excerpt: (§1) Title: Phase II—CHP in patients with chronic viral hepatitis, chronic alcohol liver diseases without cirrhosis or primary sclerosing cholangitis 45 patients—Study IPSS-B025 (Example 12.4).

[2] = Tissue distribution and pharmacokinetics of single dose of radiolabelled 3H-CHP in mice (Study IPSS C053); assay type: in vivo; settings: single dose 3H-CHP
Excerpt: Example 1: Tissue Distribution and Pharmacokinetic Study with CHP Study “Clinical Study in Mice on the Tissue Distribution and Pharmacokinetics of Single Dose of the Radiolabelled ^3H-CHP-Study No.: IPSS C053”—(FIG. 1). This Study has been Designed and Performed According to this Invention
1. Determination of ^3H-CHP distribution in 25 tissues, remaining carcass and whole blood over time.
2. Determination of pharmacokinetic parameters of CHP.
3. Comparison of intravenous (IV), and oral routes of administration.
^3H-CHP Labelling • CHP was labelled on the 4-prime position using tritium. • The scintillation counting technique detects the tritium atom. • Therefore the counting technique detects CHP and some metabolites which incorporate the tritium. […] They were selected using inclusion and exclusion criteria, and were therefore highly standardised.
Dosing Regimen • 48 animals were each administered 50 μCi ^3H-CHP at the start of the experiment. This was termed time zero (00:00 hrs). • 27 mice were dosed via the intravenous (IV) route. • 21 mice were dosed via the oral route. • Six (6) animals were not administered with CHP. They form two control groups of 3 mice each.
Data Collection • 3 mice were sacrificed following the SOP for anesthesia and according to the following time intervals
Sample Collection • From each sacrificed mouse, the following samples were taken: • Whole BloodEyes & Harderian GlandsKidneys & Adrenal GlandsAortaLiverLungSpleenUrinary BladderBone & Bone MarrowCaecumSmall IntestineLarge IntestineLymph Nodes (Mesenteric) Muscle, PancreasBrain & Pituitary GlandBrown FatSubcutaneous FatHeartThymousBoth TestesProstateSkinStomachThyroidSalivary GlandsRemaining CarcassUrine (collected if possible: in practise this was rare)
The remaining carcass sample consisted of the rest after removal of whole blood and the other tissues. Any material cleaned from other tissues listed above was also included. The collected remainings were homogenised before analysis.

[3] = test system: patients suffering from cancer, chronic liver diseases (liver fibrosis) and mild Alzheimer's disease/dementia; experiment: Phase II clinical studies (Example 12.1-12.4): safety, toxicity (CTC), Quality of Life, immune functions; assay type: in vivo, human
Excerpt: According to the example No. 12 in this invention, the safety, efficacy and Quality of Life (QoL) of CHP as monotherapy have been investigated in patients suffering from cancer, chronic liver diseases (liver fibrosis) and mild Alzheimer's disease/dementia The following four (4) ICH-GCP
(§2) Title: Phase II—CHP as antitumour agent in patients with resected colorectal cancer and liver metastasis; 60 patients—Study IPSS-A04 (Example 12.1).
(§3) Title: Phase II—CHP in patients with locally advanced or metastatic pancreatic cancer—14 patients Study IPSS B013 (Example 12.2).
(§4) Title: Evaluation of safety and efficacy of CHP in patients with urogenital Cancer—25 patients—Study IPSS-D002 (Example 12.3).
as §1
According to the examples in this invention, the objectives of these studies were: • Assessment the efficacy and safety of CHP as monotherapy have been investigated in patients suffering from cancer, chronic liver diseases (liver fibrosis) and mild Alzheimer's disease/dementia.
The following validated evaluation systems have been used: • 1. Evaluation of Quality of Life as measured by the FACT questionnaires. • 2. Evaluation of the toxicity and safety of CHP treatment as measured by the Common Toxicity Criteria CTC. • Subjective assessments mild Alzheimer' patients: Overall physical conditions, Cognitive conditions, Quality of Life (QoL)
According to the study protocols for the performance of these studies, oral and intravenous CHP as monotherapy have been administered to the patients at high doses e.g. 8 gram/day for approximately 180 consecutive days. A number of patients have received the medication for approximately 18 months as mono therapy.

[4] = test system: patients with advanced cancer disease; experiment: Efficacy, safety and Quality of Life of 25 clinical cases with advanced cancer treated with oral and intravenous CHP; assay type: in vivo, human
Excerpt: Example 11—Study Title: Evaluation of the Efficacy, Safety and Quality of Life (QoL) of 25 Clinical Cases in Patients with Advanced Cancer Disease Treated with Oral and Intravenous Formulations of Cis-4-Hydroxy-L-Proline (CHP)
25 patients (15 female and 10 male) have been treated with oral and/or intravenous CHP: • Mean age was over 60 years with maximum of 82 and minimum of 36 years. • 15 Patients considered as “elderly patients”—60-82 years (60%) • Patients 50-60 years (20%) • No further demographic data were documented. • Complete clinical case documents have been prepared for each patient.

[5] = Multiple dose ascending bioavailability and safety study (Phase I) with oral CHP (Study 0202-71); assay type: in vivo, human
Description: Example 5—Study Title: Multiple Dose Ascending Bioavailability and Safety Study Phase 1 with Oral CHP-GALMED Study No: 0202-71
12 healthy Caucasian males were recruited (age: 18-45 years).
Multiple doses of CHP were orally administered: • 4×2.0 g CHP per day, for 14 consecutive days (total daily dose=8.0 g CHP) • 4×3.0 g CHP per day, for 14 consecutive days (total daily dose=12.0 g CHP) Each dose level was administered to all volunteers.
Objectives • To determine the pharmacokinetic parameters and safety of CHP and THP in plasma following oral administration of multiple doses of 8 g CHP (4×2 g) and 12 g CHP (4×3 g)—4× daily, τ=6 h, respectively, in 12 healthy subjects on Day 1 and Day 14. • To model and simulate plasma concentrations of CHP and THP during Days 1 to 14.

[6] = Tissue distribution, bioaccumulation and pharmacokinetics following multiple dose administration of 3H-CHP in mice (Study IPSS E015); assay type: in vivo
Excerpt: Example 2. A Study in Mice on the Tissue Distribution, Bioaccumulation and Pharmacokinetics in Tissues, Connective and BrainTissues Following Multiple Dose Administration of ^3H-CHP Study No. IPSS E015 (FIG. 2)
According to this invention the study has been designed and performed as follows:
From each mouse sacrificed, the following organs & tissues samples were taken:
Liver, kidney, pancreas, limbic system, spinal fluid, brain stem, cerebrum, cerebellum, cartilage, ligaments and tendons (dense or fibrous connective tissue), loose connective tissue, and reticular connective tissue (supports lymph nodes, bone marrow, and spleen)

[7] = test system: adenocarcinoma and liver metastases, pancreatic cancer and bladder cancer; experiment: Phase II clinical studies IPSS-A04, IPSS-B013, IPSS-D002: anti-tumour activity; assay type: in vivo, human
Excerpt: as §2, §3, §4

[8] = male, human, plasma, healthy subjects, oral 4×2.0 g CHP/day
[9] = oral CHP, administration 4× daily
[10] = repeated oral dose of 3H-CHP for 7 consecutive days

With `O=C(O)[C@@H]1C[C@H](O)CN1` [CHP, cis-4-hydroxy-L-proline] the “Anti-fibrotic efficacy in patients suffering from chronic liver diseases” value [1] was “inhibited the hepatic fibrosis; also recorded: antifibrotic efficacy; also recorded: anti-fibrotic efficacy; also recorded: anti-fibrotic activities”, the “Maximal concentration in the brain following oral administration in comparison to the intravenous application” value [2] was “approximately 48%” and the “Crossing of the blood-brain barrier” value ([2]; concentration observed in brain & pituitary gland) was “can cross the blood-brain barrier”. For the same compound, the Immunological activities ([3]; Examples 12.1-12.4) was “increase of the immunological activities of interleukin-2, Interleukin-12, and Interferon-alpha”, the “Patients' Quality of Life (QoL questionnaires)” value ([3]; Phase II clinical studies) was “improved drastically” and the “Toxicity and safety as measured by the Common Toxicity Criteria CTC” value ([3]; Phase II clinical studies) was “has not cause any nephrotoxicity, neurotoxicity, hepatotoxicity, cardiotoxicity and/or laboratory abnormalities”. For the same compound, the Side effects observed ([3]; Phase II clinical studies, CHP monotherapy) was “Only mild side effects such as nausea and/or vomiting”, the Tolerability ([3]; all clinical studies, mostly patients over 60 years, e.g. 8 gram/day for approximately 180 consecutive days, oral and intravenous monotherapy) was “excellent tolerability” and the “Drug-drug interactions on co-administration with drugs used by the patients” value ([3]; mostly elderly patients) was “no drug-drug interactions have been observed”. For the same compound, the “Tolerability of long-term treatment” value ([4]; 1-13 month, 2-22 gram/day CHP as monotherapy, 25 patients) was “well tolerated”, the “Toxic side effects, adverse events” value ([4]; 25 patients with advanced cancer, CHP monotherapy) was “No adverse events or side effects occurred were clinically relevant; also recorded: no toxic side effects or serious adverse events” and the Healing ([4]; advanced cancer patients treated with CHP) was “In one case healing was achieved”. For the same compound, the “Course of disease in most of the patients” value ([4]; advanced cancer, no progression, no ascites, no obstruction) was “quite long time of stable disease”, the Cmax [5, 8] was 52.3 µg/mL and the Tmax [5, 8] was 0.98 h. For the same compound, the half-life [5, 8] was 34.2 h, the MRT inf ([5]; male, human, plasma, healthy subjects, oral 4×2.0 g CHP/day, read-out: MRT (0-inf)) was 9.33 h and the “Accumulation following oral administration” value ([5]; multiple oral doses of CHP) was “extensive”. For the same compound, the “Time after which a steady state was observed” value ([5]; multiple oral doses of CHP, 4× daily, simulation of plasma concentration-time curves) was “approximately 48 h”, the “Plasma half-life relative to the dosing interval” value ([5]; oral CHP 4× daily, τ=6 h) was “approximately 4 times” and the “Css,min lower if 2.0 g of CHP was administered (versus 3.0 g)” value [5, 9] was 36%. The “Increase of AUCss,t, Css,max and Css,ave when the dose was increased from 2.0 g up to 3.0 g” value [5, 9] was “approximately 50%”, the “Penetration of the BBB” value ([6]; repeated dose of oral aqueous solution of 3H-CHP) was “Excellent penetration of the BBB” and the “AUC as % of total administered CHP in cerebrum, cerebelium, brain stem, limbic system and spinal fluid” value [6, 10] was 14.9%. For the same compound, the “AUC as % of total administered CHP in loose connective tissues, cartilage, reticular connective tissue, dense/fibrous connective tissue, bone and bone marrow” value [6, 10] was 35%, the “Half-Life time in cerebrum, cerebelium, brain stem and limbic system” value [6, 10] was 32.30 to 42.70 h and the “Anti-tumour activity in patients” value [7] was “anti-tumour activities”.
